Assay results published in patent US20230073512A1, “MODULATORS OF CULLIN 3 ADAPTOR KBTBD4 AS ANTI-CANCER COMPOUNDS” (UNIVERSITE DE MONTREAL, priority 2019, published 2023).
Where two headings read alike, the source gives them in different places.

Columns and labels:
SKNO = experiment: Cell proliferation of cancerous cell lines; assay type: cell-based; details: SKNO cell line; read-out: Antineoplastic effect on cell proliferation, IC50
EOL1 = experiment: Cell proliferation of cancerous cell lines; assay type: cell-based; details: Homo sapiens; EOL1 cell line; read-out: Antineoplastic effect on cell proliferation, IC50
MUTZ-8 = experiment: Cell proliferation of cancerous cell lines; assay type: cell-based; details: MUTZ-8 cell line; read-out: Antineoplastic effect on cell proliferation, IC50
AML4 = experiment: Cell proliferation of cancerous cell lines; assay type: cell-based; details: AML4 cell line; read-out: Antineoplastic effect on cell proliferation, IC50
LY-1 = experiment: Cell proliferation of cancerous cell lines; assay type: cell-based; details: Ly1; LY-1 cell line; read-out: Antineoplastic effect on cell proliferation, IC50
HL-60 = experiment: Cell proliferation of cancerous cell lines; assay type: cell-based; details: Homo sapiens; HL-60 cell line; read-out: Antineoplastic effect on cell proliferation, IC50
KU-812 = experiment: Cell proliferation of cancerous cell lines; assay type: cell-based; details: Homo sapiens, KU812; KU-812 cell line; read-out: Antineoplastic effect on cell proliferation, IC50
NB-4 = experiment: Cell proliferation of cancerous cell lines; assay type: cell-based; details: Homo sapiens; NB-4 cell line; read-out: Antineoplastic effect on cell proliferation, IC50
Z-138 = experiment: Cell proliferation of cancerous cell lines; assay type: cell-based; details: Homo sapiens; Z-138 cell line; read-out: Antineoplastic effect on cell proliferation, IC50
AML samples = experiment: Cell proliferation of cancerous samples from patients
KBM7 = experiment: Cell proliferation of cancerous cell lines; assay type: cell-based; details: KBM-7; KBM7 cell line; read-out: Antineoplastic effect on cell proliferation, IC50
MonoMac = experiment: Cell proliferation of cancerous cell lines; assay type: cell-based; details: MonoMac cell line; read-out: Antineoplastic effect on cell proliferation, IC50
AML3 = experiment: Cell proliferation of cancerous cell lines; assay type: cell-based; details: AML3 cell line; read-out: Antineoplastic effect on cell proliferation, IC50
UT-7 = experiment: Cell proliferation of cancerous cell lines; assay type: cell-based; details: Homo sapiens, UT7; UT-7 cell line; read-out: Antineoplastic effect on cell proliferation, IC50
MOLM-13 = experiment: Cell proliferation of cancerous cell lines; assay type: cell-based; details: Homo sapiens; MOLM-13 cell line; read-out: Antineoplastic effect on cell proliferation, IC50
AML5 = experiment: Cell proliferation of cancerous cell lines; assay type: cell-based; details: AML5 cell line; read-out: Antineoplastic effect on cell proliferation, IC50
CB = experiment: Cell proliferation, CB sample of Table 2; details: read-out: Antineoplastic effect on cell proliferation, IC50
in vivo = details: mouse
Protocol: PK assays were performed in mice (n=3). […] The following pharmacokinetic parameters were calculated.
The compounds were orally administered at 20 mg/kg and plasma samples were collected at 15, 30 minutes and 1, 2, 4, 6 and 8 hours after administration. The following pharmacokinetic parameters were calculated.

KG1a = experiment: Cell proliferation of cancerous cell lines; assay type: cell-based; details: Homo sapiens, KG-1a; KG1a cell line; read-out: Antineoplastic effect on cell proliferation, IC50
KG1 = experiment: Cell proliferation of cancerous cell lines; assay type: cell-based; details: Homo sapiens, KG-1; KG1 cell line; read-out: Antineoplastic effect on cell proliferation, IC50
MUTZ-2 = experiment: Cell proliferation of cancerous cell lines; assay type: cell-based; details: MUTZ-2 cell line; read-out: Antineoplastic effect on cell proliferation, IC50

IC50 (SKNO): 1 to 10 µM
IC50 (EOL1): 0.25 to 1 µM
IC50 (MUTZ-8): > 10 µM
IC50 (AML4): 0.25 to 1 µM
IC50 (LY-1): > 10 µM
IC50 (HL-60): 1 to 10 µM
IC50 (KU-812): 1 to 10 µM
IC50 (NB-4): 1 to 10 µM
IC50 (Z-138): 1 to 10 µM
IC50 (AML samples; read-out: Antineoplastic effect on cell proliferation, IC50, AML sample 04H063): 1 to 10 µM
IC50 (AML samples; read-out: Antineoplastic effect on cell proliferation, IC50, AML sample 05H094): 1 to 10 µM
IC50 (AML samples; read-out: Antineoplastic effect on cell proliferation, IC50, AML sample 05H149): 1 to 10 µM
IC50 (AML samples; read-out: Antineoplastic effect on cell proliferation, IC50, AML sample 06H045): 1 to 10 µM
IC50 (AML samples; read-out: Antineoplastic effect on cell proliferation, IC50, AML sample 06H088): > 10 µM
IC50 (AML samples; read-out: Antineoplastic effect on cell proliferation, IC50, AML sample 06H117): 1 to 10 µM
IC50 (AML samples; read-out: Antineoplastic effect on cell proliferation, IC50, AML sample 07H005): 1 to 10 µM
IC50 (AML samples; read-out: Antineoplastic effect on cell proliferation, IC50, AML sample 07H038): 1 to 10 µM
IC50 (AML samples; read-out: Antineoplastic effect on cell proliferation, IC50, AML sample 07H045): > 10 µM
IC50 (AML samples; read-out: Antineoplastic effect on cell proliferation, IC50, AML sample 07H125): 1 to 10 µM
IC50 (AML samples; read-out: Antineoplastic effect on cell proliferation, IC50, AML sample 07H135): 1 to 10 µM
IC50 (AML samples; read-out: Antineoplastic effect on cell proliferation, IC50, AML sample 07H151): > 10 µM
IC50 (AML samples; read-out: Antineoplastic effect on cell proliferation, IC50, AML sample 08H018): > 10 µM
IC50 (AML samples; read-out: Antineoplastic effect on cell proliferation, IC50, AML sample 09H010): 1 to 10 µM
IC50 (AML samples; read-out: Antineoplastic effect on cell proliferation, IC50, AML sample 09H046): > 10 µM
IC50 (AML samples; read-out: Antineoplastic effect on cell proliferation, IC50, AML sample 09H079): 1 to 10 µM
IC50 (AML samples; read-out: Antineoplastic effect on cell proliferation, IC50, AML sample 09H115): 1 to 10 µM
IC50 (AML samples; read-out: Antineoplastic effect on cell proliferation, IC50, AML sample 10H022): 0.25 to 1 µM
IC50 (AML samples; read-out: Antineoplastic effect on cell proliferation, IC50, AML sample 10H127): 1 to 10 µM
IC50 (AML samples; read-out: Antineoplastic effect on cell proliferation, IC50, AML sample 11H002): 1 to 10 µM
IC50 (AML samples; read-out: Antineoplastic effect on cell proliferation, IC50, AML sample 11H046): 0.25 to 1 µM
IC50 (AML samples; read-out: Antineoplastic effect on cell proliferation, IC50, AML sample 11H103): 1 to 10 µM
IC50 (AML samples; read-out: Antineoplastic effect on cell proliferation, IC50, AML sample 12H045): 1 to 10 µM
IC50 (AML samples; read-out: Antineoplastic effect on cell proliferation, IC50, AML sample 12H058): 1 to 10 µM
IC50 (AML samples; read-out: Antineoplastic effect on cell proliferation, IC50, AML sample 12H096): > 10 µM
IC50 (AML samples; read-out: Antineoplastic effect on cell proliferation, IC50, AML sample 12H106): > 10 µM
IC50 (AML samples; read-out: Antineoplastic effect on cell proliferation, IC50, AML sample 12H151): 1 to 10 µM
IC50 (AML samples; read-out: Antineoplastic effect on cell proliferation, IC50, AML sample 13H100): 1 to 10 µM
IC50 (AML samples; read-out: Antineoplastic effect on cell proliferation, IC50, AML sample 13H150): 1 to 10 µM
IC50 (KBM7): > 10 µM
IC50 (MonoMac): 1 to 10 µM
IC50 (AML3): 1 to 10 µM
IC50 (UT-7): > 10 µM
IC50 (MOLM-13): 0.25 to 1 µM
IC50 (AML5): 1 to 10 µM
bioavailability (in vivo; female, po, 20 mg/kg): 39%
bioavailability (in vivo; male, po, 20 mg/kg): 31%
Vd (in vivo; iv, 1 mg/kg): 14.3 L/kg
clearance (in vivo; iv, 1 mg/kg): 109 mL/min/kg
half-life (in vivo; iv, 1 mg/kg): 1.9 h
AUC (in vivo; po, 20 mg/kg): 2.45 µM·h
Cmax (in vivo; po, 20 mg/kg): 200 nM
Tmax (in vivo; po, 20 mg/kg): 4 h
IC50 (KG1a): 1 to 10 µM
IC50 (KG1): 1 to 10 µM
IC50 (MUTZ-2): 1 to 10 µM
SMILES: Cn1nnc(-c2ccc3c(c2)[nH]c2ncnc(NCCCN4CCCCC4)c23)n1 [UM681]
IC50 (CB): 1 to 10 µM
